According to US20170079989A1, “METHOD FOR TREATMENT OF OSTEOARTHRITIS AND OTHER JOINT RELATED INJURIES AND CONDITIONS” (priority 2010, published 2017):
“Also recorded” adds a separate entry of the source.

What was measured:
[1] = cited from earlier work
[2] = Injectable formulation of sulfasalazine in SAIB/DMSO injected into an aqueous environment; assay type: physicochemical; conditions: drug/DMSO mixed 1:1 with SAIB gel (90% in ethanol)
From the text: FIG. 2 is a drawing of the injectable formulation of FIG. 1 when injected into an aqueous environment. The liquid formulation of drug, DMSO and SAIB formed a liquid gel after the ethanol component in the SAIB and DMSO diffused out into the water. […] Controlled release of the drug over a long period of time can be beneficial to treat chronic inflammation in osteoarthritis. A known amount of sulfasalazine was weighed and dissolved in DMSO. This solution of sulfasalazine/DMSO was then mixed in 1:1 ratio with SAIB gel (90% by weight in ethanol). The mixture as shown in FIG. 1 can be loaded into a syringe and injected through a 20 GA needle. The mixture formed a gel that encapsulated the drug after the solvents (DMSO and ethanol) diffused out of the aqueous environment (FIG. 2).

[3] = In vitro release (elution testing) of injectable formulations in sterile PBS at 37 degrees C.; assay type: physicochemical; conditions: drug encapsulated in SAIB nanoparticles suspended in hyaluronic acid solution, dialysis tubing, 50 rpm, UV-Vis
Procedure: About 21 mg of curcumin was dissolved in 2 ml of DMSO/SAIB (9:1 ratio of DMSO to SAIB in ethanol). The concentration of SAIB in the solution was about 104 mg per ml of DMSO/SAIB/Ethanol solution. This solution of curcumin/DMSO/SAIB/Ethanol was added drop wise to PBS while stirring. The nanoparticles of curcumin/SAIB formed when the DMSO/ethanol diffused out into the PBS (FIG. 3). 0.5 ml of the nanoparticle solution was then mixed with 2.5 ml of 1% Hyaluronic acid (HA) in PBS. The final mixture was then used for testing of injectability and for elution study.
Elution testing of various injectable formulations as described in example 2 was carried out in sterile PBS and at 37 degrees C. Drugs such as rapamycin, curcumin and sulfasalazine were used in the testing of various formulations. Each formulation was pipetted into a segment of dialysis tubing (Sigma Cat. D0530) with both ends of the tubing sealed. The dialysis tubing with the formulation was then placed inside a container and 15 ml of sterile PBS was added to the container. The container was then placed in an incubator shaker at 37 degrees C., 50 rpm and samples were withdrawn at regular time intervals and replaced with fresh sterile PBS. The samples were measured photometrically (UV-Vis) at a wavelength of 420 nanometers for curcumin, 359 nanometers for sulfasalazine and 278 nanometers for rapamycin.

SMILES	water solubility [1]	release of drug from the SAIB gel [2]	release kinetics of drug from the injectable formulation [3]
O=C(O)c1cc(/N=N/c2ccc(S(=O)(=O)Nc3ccccn3)cc2)ccc1O [sulfasalazine, Sulfasalazine]	slightly water soluble	slowly diffused out of the gel in a controlled release manner	high at the beginning and level off quickly in a few days
COc1cc(/C=C/C(=O)CC(=O)/C=C/c2ccc(O)c(OC)c2)ccc1O [curcumin, Curcumin]			released over an extended period of time; also recorded: controlled release manner
